Measured values as given in patent US20240247253A1, “PRODUCTION METHOD OF POLYPEPTIDE, TAG, EXPRESSION VECTOR, EVALUATION METHOD OF POLYPEPTIDE, PRODUCTION METHOD OF NUCLEIC ACID DISPLAY LIBRARY, AND SCREENING METHOD” (FUJIFILM Corporation, priority 2021, published 2024).

Tested on: cell-free peptide synthesis system derived from Escherichia coli
Assay: Cell-free biosynthesis of the integrin binding peptide fusion protein with N-terminal tag, 1 hour reaction, amount measured by ELISA
Format: biochemical
Description: In the cell-free peptide synthesis system derived from Escherichia coli, the effect of the VKKX tag on the biosynthesis amount of the polypeptide was examined. As a polypeptide to be biosynthesized, an integrin binding peptide containing cysteine and chloroacetyl lysine was selected. In this polypeptide, a thiol group of cysteine and a chloroacetyl group of chloroacetyl lysine spontaneously form a thioether bond to become a cyclic polypeptide.
A fusion protein in which an integrin binding peptide, a Myc tag, and a HiBiT tag were linked in this order was designed. As a spacer, Gly-Gly-Ser was inserted between the integrin binding peptide and the Myc tag and between the Myc tag and the HiBiT tag. The amino acid sequence of this fusion protein is SEQ ID NO: 5, and the base sequence encoding this fusion protein is SEQ ID NO: 6. In SEQ ID NO: 5, the integrin binding peptide ranges to the amino acid at the twelfth position (that is, alanine) from an N-terminal, and the amino acid at eleventh position from the N-terminal is chloroacetyl lysine. The triplet TAG at the positions 31 to 33 from the 5′ terminal of the base sequence set forth in SEQ ID NO: 6 was assigned to the codon of chloroacetyl lysine. The end of the base sequence set forth in SEQ ID NO: 6 is the stop codon TAA.
A base sequence encoding a tagged fusion protein in which methionine, a VKKX tag (any of SEQ ID nOs: 7 to 52), and a fusion protein (SEQ ID NO: 5) were linked in this order was designed. In this base sequence, a base sequence (any of SEQ ID nOs: 53 to 98) encoding a VKKX tag is arranged immediately after the start codon ATG, and a base sequence encoding a fusion protein immediately after the base sequence (SEQ ID NO: 6) encoding the VKKX tag is arranged.
As a control example for evaluating the effect of the VKKX tag, a base sequence in which a base sequence (SEQ ID NO: 6) encoding a fusion protein arranged immediately after the start codon ATG was designed.
In order to translate chloroacetyl lysine which is an unnatural amino acid, a tRNA in which the anticodon was CUA and paired with the UAG codon of mRNA was prepared. This tRNA was aminoacylated with an N-chloroacetyl lysine hosphoro 2′ deoxyribocytidylylriboadenosine (pdCpA) ester. This aminoacyl tRNA is referred to as an Aminoacyl tRNA (1).
The cell-free biosynthesis of the polypeptide was carried out in a translation solution containing a template DNA, PUREfrex 2.0 (GeneFrontier, PF201-0.25-5), and Aminoacyl tRNA (1). 1.25 μL (62.5 ng) of the template DNA prepared to 50 ng/μL, 2.5 μL of PUREfrex 2.0 Solution I, 0.25 μL of Solution II, 0.5 μL of Solution III, and 0.5 μL of Aminoacyl tRNA (1) were mixed and mixture was subjected to a reaction at 37° ° C. for 1 hour.
The amount of the biosynthesized polypeptide was measured by ELISA. 50 ng of Recombinant Human Integrin αVβ3 (R&D systems, 3050-AV-050) was immobilized in each well of a 96-well plate and blocked with Blocker Casein in PBS (Thermo, 37528), and then a cell-free biosynthesis solution diluted with Can Get Signal Immunoreaction Enhancer Solution I (TOYOBO, NKB-101) containing 5 mmol/L MgCl2 was added thereto, and the mixture was subjected to a reaction at room temperature for 3 hours. After washing with 5 mmol/L MgCl2/0.05% Tween 20-containing phosphate buffered saline (PBS), an anti-Myc antibody (Cell Signaling, 14038S) diluted with Can Get Signal Immunoreaction Enhancer Solution II (TOYOBO, NKB-101) was added thereto, and the mixture was subjected to a reaction at room temperature for 2 hours. After washing with PBS containing 5 mmol/L MgCl2/0.05% Tween 20, Super Signal ELISA Femto Substrate (Thermo, 37075) was added thereto, and the luminescence was measured. The amount of the fusion protein in the cell-free biosynthesis solution was calculated based on a calibration curve created from the fusion protein having a known concentration. The luminescence measurement was performed twice, and the average value of the amounts of the fusion protein was calculated. […]

| Substance | increase of biosynthesis amount of the fusion protein (Example 1, versus control without tag, fusion protein SEQ ID NO: 5, 1 hour) | Biosynthesis amount of fusion protein (relative value, control example without tag = 1, fusion protein SEQ ID NO: 5, 37° C. for 1 hour, average of two measurements) | Biosynthesis amount of fusion protein (tag encoded by base sequence SEQ ID NO 73, GC content 17%, control without tag = 1) | Biosynthesis amount of fusion protein (tag encoded by base sequence SEQ ID NO 111, GC content 33%, control without tag = 1) | Biosynthesis amount of fusion protein (tag encoded by base sequence SEQ ID NO 112, GC content 50%, control without tag = 1) | Biosynthesis amount of fusion protein (tag encoded by base sequence SEQ ID NO 108, GC content 8%, control without tag = 1) | Biosynthesis amount of fusion protein (tag encoded by base sequence SEQ ID NO 109, GC content 25%, control without tag = 1) | Biosynthesis amount of fusion protein (tag encoded by base sequence SEQ ID NO 110, GC content 42%, control without tag = 1) |
| --- | --- | --- | --- | --- | --- | --- | --- | --- |
| SEQ ID NO: 27: VKKX tag, amino acid sequence VKKTKT (VKKX Tag) | 4.9 times | 4.94 | 4.94 | 3.83 | 3.77 |  |  |  |
| SEQ ID NO: 107: tag consisting of an amino acid sequence of SKIK, disclosed in WO2016/204198A; comparative control (SKIK Tag) [reference compound] |  |  |  |  |  | 3.79 | 4.18 | 1.46 |
